# Laboratory results published in patent US20240180793A1, “CORE STICK-TYPE OIL DISPERSION SOLID COSMETIC COMPOSITION HAVING IMPROVED SPREADABILITY” (COSMAX, INC., priority 2021, published 2024).
# Target: mushroom tyrosinase
# Test: Mushroom tyrosinase inhibition assay (whitening effect)
# Type: biochemical
# Settings: mushroom tyrosinase 1000 units/mL, L-tyrosine, pH 6.5, 25° C. for 30 minutes, absorbance at 490 nm
# Experimental: Then, the absorbance was recorded at 490 nm by a microplate reader to determine the amount of dopachrome generated. […] The expression of the percentage of tyrosinase activity inhibition is as follows.
# Tyrosinase activity inhibitory effect (%)=(1−(A−B)/C)×100 [Equation] • A: Absorbance of sample • B: Absorbance of color control • C: Absorbance of control
smiles,measurement,value
OC[C@H]1O[C@@H](Oc2ccc(O)cc2)[C@H](O)[C@@H](O)[C@@H]1O [Arbutin],IC50 (tyrosinase activity inhibition),630.1 µg/mL
